Our source for the EC50 values is patent publication US10590113B2, “6-hydroxy-4-oxo-1,4-dihydropyrimidine-5-carboxamides as APJ agonists” (priority 2016, dated 2020).

The test deals with T1, human APJ receptor (Homo sapiens, UniProt P35414).
T1 construct: expressed in transfected cells; host or cells: HEK293
T1 sequence (P35414 1-380): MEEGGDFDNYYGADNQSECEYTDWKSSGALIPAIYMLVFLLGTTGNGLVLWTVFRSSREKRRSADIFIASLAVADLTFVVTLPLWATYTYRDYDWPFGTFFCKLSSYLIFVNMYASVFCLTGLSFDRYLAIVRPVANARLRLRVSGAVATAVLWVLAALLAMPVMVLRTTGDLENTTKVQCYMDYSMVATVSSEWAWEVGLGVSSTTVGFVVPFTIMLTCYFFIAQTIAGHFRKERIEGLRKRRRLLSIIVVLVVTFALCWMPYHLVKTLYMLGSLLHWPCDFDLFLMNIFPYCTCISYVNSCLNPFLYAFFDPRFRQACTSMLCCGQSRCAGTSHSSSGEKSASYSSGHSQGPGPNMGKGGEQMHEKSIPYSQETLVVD
Put plainly: Intracellular cAMP Accumulation Assay (APJ hcAMP, HTRF). The settings on record: human APJ, cAMP accumulation; potency range class; read-out: hAPJ cAMP EC50 Potency range. The class given is cell-based. In outline: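 Stably transfected HEK293 cells (5,000/well) incubated 30 min at room temperature with serially diluted compound, […] and 2 μM forskolin. cAMP measured by HTRF after 60 min with detection reagents, quantified against a cAMP standard curve; EC50 from variable-slope sigmoidal fit of inhibition of forskolin-stimulated cAMP.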

As to `COc1cccc(OC)c1-n1c(-c2nc(C)cs2)nc(=O)c(C(=O)N2CCC(c3c(F)cccc3F)C2)c1O` (single isomer, unassigned) [Example 271, 5-[3-(2,6-difluorophenyl)pyrrolidine-1-carbonyl]-1-(2,6-dimethoxyphenyl)-6-hydroxy-2-(4-methyl-1,3-thiazol-2-yl)-1,4-dihydropyrimidin-4-one], the EC50 lay within 0.01 to 10 nM.

On to `CCc1cccc(CC)c1-n1c(-c2ccn(C)n2)nc(=O)c(C(=O)N2CCC(c3ccc(F)cc3)C2)c1O` (single isomer, unassigned) [Example 272, 1-(2,6-diethylphenyl)-5-[3-(4-fluorophenyl)pyrrolidine-1-carbonyl]-6-hydroxy-2-(1-methyl-1H-pyrazol-3-yl)-1,4-dihydropyrimidin-4-one], for which the EC50 was in the range of 0.01 to 10 nM.

Regarding `COc1ccnc(-c2nc(=O)c(C(=O)N3CCC(c4c(F)cccc4F)C3)c(O)n2-c2c(OC)cccc2OC)c1` (single isomer, unassigned) [Example 273, 5-[3-(2,6-difluorophenyl)pyrrolidine-1-carbonyl]-1-(2,6-dimethoxyphenyl)-6-hydroxy-2-(4-methoxypyridin-2-yl)-1,4-dihydropyrimidin-4-one], the 50% effective concentration (EC50) fell in the range of 0.01 to 10 nM.

Turning to `COc1cccc(OC)c1-n1c(-c2ccc(C)cn2)nc(=O)c(C(=O)N2CCC(c3c(F)cccc3F)C2)c1O` (single isomer, unassigned) [Example 274, 5-[3-(2,6-difluorophenyl)pyrrolidine-1-carbonyl]-1-(2,6-dimethoxyphenyl)-6-hydroxy-2-(5-methylpyridin-2-yl)-1,4-dihydropyrimidin-4-one], the EC50 lay in the range of 0.01 to 10 nM.

Consider `CCn1ccc(-c2nc(=O)c(C(=O)N3CCC(c4c(F)cccc4F)C3)c(O)n2-c2c(OC)cccc2OC)n1` (single isomer, unassigned) [Example 276, 5-[3-(2,6-difluorophenyl)pyrrolidine-1-carbonyl]-1-(2,6-dimethoxyphenyl)-2-(1-ethyl-1H-pyrazol-3-yl)-6-hydroxy-1,4-dihydropyrimidin-4-one], for which the EC50 fell in the range of 0.01 to 10 nM.

Turning to `COc1ccnc(-c2nc(=O)c(C(=O)N3CCC(c4ccc(F)cc4F)C3)c(O)n2-c2c(OC)cccc2OC)c1` (single isomer, unassigned) [Example 278, 5-[3-(2,4-difluorophenyl)pyrrolidine-1-carbonyl]-1-(2,6-dimethoxyphenyl)-6-hydroxy-2-(4-methoxypyridin-2-yl)-1,4-dihydropyrimidin-4-one], the EC50 was 0.01 to 10 nM.

Consider `COc1cccc(OC)c1-n1c(-c2ccc(Cl)nc2)nc(=O)c(C(=O)N2CCC(c3ccc(F)cc3F)C2)c1O` (single isomer, unassigned) [Example 279, 2-(6-chloropyridin-3-yl)-5-[3-(2,4-difluorophenyl)pyrrolidine-1-carbonyl]-1-(2,6-dimethoxyphenyl)-6-hydroxy-1,4-hydropyrimidin-4-one], for which the EC50 was in the range of 0.01 to 10 nM.

Consider `COc1cccc(OC)c1-n1c(-c2ccc(Cl)cn2)nc(=O)c(C(=O)N2CCC(c3c(F)cccc3F)C2)c1O` (single isomer, unassigned) [Example 280, 2-(5-chloropyridin-2-yl)-5-[3-(2,6-difluorophenyl)pyrrolidine-1-carbonyl]-1-(2,6-dimethoxyphenyl)-6-hydroxy-1,4-dihydropyrimidin-4-one], for which the EC50 lay within 0.01 to 10 nM.

Regarding `COc1cccc(OC)c1-n1c(-c2ccc(Cl)nc2)nc(=O)c(C(=O)N2CCC(c3c(F)cccc3F)C2)c1O` (single isomer, unassigned) [Example 281, 2-(6-chloropyridin-3-yl)-5-[3-(2,6-difluorophenyl)pyrrolidine-1-carbonyl]-1-(2,6-dimethoxyphenyl)-6-hydroxy-1,4-dihydropyrimidin-4-one], the EC50 lay within 0.01 to 10 nM.

As to `COc1cccc(OC)c1-n1c(-c2ccc(Cl)cn2)nc(=O)c(C(=O)N2CCC(c3ccc(F)cc3F)C2)c1O` (single isomer, unassigned) [Example 287, 2-(5-chloropyridin-2-yl)-5-[3-(2,4-difluorophenyl)pyrrolidine-1-carbonyl]-1-(2,6-dimethoxyphenyl)-6-hydroxy-1,4-dihydropyrimidin-4-one], the EC50 fell in the range of 0.01 to 10 nM.

Consider `CCc1cccc(CC)c1-n1c(-c2ccn(C(C)C)n2)nc(=O)c(C(=O)N2CCC(c3ncc(Cl)cc3F)C2)c1O` (single isomer, unassigned) [Example 290, 5-[3-(5-chloro-3-fluoropyridin-2-yl)pyrrolidine-1-carbonyl]-1-(2,6-diethylphenyl)-6-hydroxy-2-[1-(propan-2-yl)-1H-pyrazol-3-yl]-1,4-dihydropyrimidin-4-one], for which the EC50 was 0.01 to 10 nM.

With `CCc1cccc(CC)c1-n1c(-c2ccn(C(C)C)n2)nc(=O)c(C(=O)N2CCC(c3ncccc3F)C2)c1O` (single isomer, unassigned) [Example 292, 1-(2,6-diethylphenyl)-5-[3-(3-fluoropyridin-2-yl)pyrrolidine-1-carbonyl]-6-hydroxy-2-[1-(propan-2-yl)-1H-pyrazol-3-yl]-1,4-dihydropyrimidin-4-one], the EC50 was 0.01 to 10 nM.

As to `CCn1ccc(-c2nc(=O)c(C(=O)N3CCC(c4ncc(F)cc4F)C3)c(O)n2-c2cccc(C(C)C)c2)n1` (single isomer, unassigned) [Example 293, 5-[3-(3,5-difluoropyridin-2-yl)pyrrolidine-1-carbonyl]-2-(1-ethyl-1H-pyrazol-3-yl)-6-hydroxy-1-[3-(propan-2-yl)phenyl]-1,4-dihydropyrimidin-4-one], the EC50 lay within 0.01 to 10 nM.

Regarding `CCn1ccc(-c2nc(=O)c(C(=O)N3CCC(c4ccccc4F)C3)c(O)n2-c2cccc(C(C)C)c2)n1` (single isomer, unassigned) [Example 294, 2-(1-ethyl-1H-pyrazol-3-yl)-5-[3-(2-fluorophenyl)pyrrolidine-1-carbonyl]-6-hydroxy-1-[3-(propan-2-yl)phenyl]-1,4-dihydropyrimidin-4-one], the EC50 lay within 0.01 to 10 nM.

In the case of `CCc1cccc(CC)c1-n1c(-c2ccn(C(C)C)n2)nc(=O)c(C(=O)N2CCC(c3ccccc3F)C2)c1O` (single isomer, unassigned) [Example 295, 1-(2,6-diethylphenyl)-5-[3-(2-fluorophenyl)pyrrolidine-1-carbonyl]-6-hydroxy-2-[1-(propan-2-yl)-1H-pyrazol-3-yl]-1,4-dihydropyrimidin-4-one], the EC50 lay within 0.01 to 10 nM.

Regarding `CCc1cccc(CC)c1-n1c(-c2csc(C)n2)nc(=O)c(C(=O)N2CCC(c3ncc(Cl)cc3F)C2)c1O` (single isomer, unassigned) [Example 296, 5-[3-(5-chloro-3-fluoropyridin-2-yl)pyrrolidine-1-carbonyl]-1-(2,6-diethylphenyl)-6-hydroxy-2-(2-methyl-1,3-thiazol-4-yl)-1,4-dihydropyrimidin-4-one], the EC50 fell in the range of 0.01 to 10 nM.

On to `CCc1cccc(CC)c1-n1c(-c2csc(C(C)C)n2)nc(=O)c(C(=O)N2CCC(c3ncc(F)cc3F)C2)c1O` (single isomer, unassigned) [Example 297, 1-(2,6-diethylphenyl)-5-[3-(3,5-difluoropyridin-2-yl)pyrrolidine-1-carbonyl]-6-hydroxy-2-[2-(propan-2-yl)-1,3-thiazol-4-yl]-1,4-dihydropyrimidin-4-one], for which the EC50 was 0.01 to 10 nM.

For the compound `CCc1cccc(CC)c1-n1c(-c2csc(C)n2)nc(=O)c(C(=O)N2CCC(c3ncc(F)cc3F)C2)c1O` (single isomer, unassigned) [Example 298, 1-(2,6-diethylphenyl)-5-[3-(3,5-difluoropyridin-2-yl)pyrrolidine-1-carbonyl]-6-hydroxy-2-(2-methyl-1,3-thiazol-4-yl)-1,4-dihydropyrimidin-4-one], the EC50 is 0.01 to 10 nM.

Regarding `CCc1cccc(CC)c1-n1c(-c2csc(C(C)C)n2)nc(=O)c(C(=O)N2CCC(c3ccc(F)cn3)C2)c1O` (single isomer, unassigned) [Example 300, 1-(2,6-diethylphenyl)-5-[3-(5-fluoropyridin-2-yl)pyrrolidine-1-carbonyl]-6-hydroxy-2-[2-(propan-2-yl)-1,3-thiazol-4-yl]-1,4-dihydropyrimidin-4-one], the EC50 was 0.01 to 10 nM.

Take `CCc1cccc(CC)c1-n1c(-c2csc(C)n2)nc(=O)c(C(=O)N2CCC(c3ncccc3F)C2)c1O` (single isomer, unassigned) [Example 302, 1-(2,6-diethylphenyl)-5-[3-(3-fluoropyridin-2-yl)pyrrolidine-1-carbonyl]-6-hydroxy-2-(2-methyl-1,3-thiazol-4-yl)-1,4-dihydropyrimidin-4-one]: the EC50 was 0.01 to 10 nM.

As for `CCc1cccc(CC)c1-n1c(-c2nc(C)cs2)nc(=O)c(C(=O)N2CCC(c3ncc(Cl)cc3F)C2)c1O` (single isomer, unassigned) [Example 306, 5-[3-(5-chloro-3-fluoropyridin-2-yl)pyrrolidine-1-carbonyl]-1-(2,6-diethylphenyl)-6-hydroxy-2-(4-methyl-1,3-thiazol-2-yl)-1,4-dihydropyrimidin-4-one], the EC50 lay within 0.01 to 10 nM.

Consider `CCc1cccc(CC)c1-n1c(-c2nc(C)cs2)nc(=O)c(C(=O)N2CCC(c3ncccc3F)C2)c1O` (single isomer, unassigned) [Example 307, 1-(2,6-diethylphenyl)-5-[3-(3-fluoropyridin-2-yl)pyrrolidine-1-carbonyl]-6-hydroxy-2-(4-methyl-1,3-thiazol-2-yl)-1,4-dihydropyrimidin-4-one], for which the EC50 lay within 0.01 to 10 nM.
